{"source": "patent US20250031697A1", "about": "“METHODS AND COMPOSITIONS TO PREVENT PLANT PESTS AND PATHOGENS” (Impello Biosciences, Inc., priority 2021, published 2025)", "type_in_all_cases": "in vivo", "key": {"Botrytis": {"system": "Botrytis", "experiment": "Field trial, MDJ foliar spray on 'Maverick' strawberries, Botrytis incidence on berries", "conditions": "MDJ approx. 5 mM, 50 gallons per acre, two foliar sprays", "description": "Methyl dihydrojasmonate (MDJ) was applied to fields of strawberry to investigate the efficacy of MDJ in preventing Botriytis disease. A composition comprising 22.6% w/v MDJ, 49.8% v/v TWEEN-20, and water was diluted at a rate of 32 oz. (1 liter) per 50 gallons of water (approximately a 5 mM solution of MDJ). The composition was then applied (at a rate of 50 gallons per acre) to an acre of ‘Maverick’ strawberries grown in Watsonville, CA on Aug. 18, 2021 and again on Sep. 2, 2021 using an electrostatic backpack sprayer (foliar spray). Plants were harvested in October 2021. MDJ plants were compared to strawberries treated with the grower standard; a rotation of Pristine® (pyraclostrobin and boscalid), Merivon® (pyraclostrobin), Luna® (fluopyram and trifloxystrobin), and Elevate® (fenhexamid). […] Out of four replicates of 10 plants each, the average incidence of Botrytis on berries in the MDJ treated acre was 11%, compared to 18.75% in the grower standard population."}, "[1]": {"system": "bunch rot (Botrytis cinerea)", "experiment": "Vineyard trial, MDJ on cabernet sauvignon grapes, laccase analysed as measure of Botrytis prevalence", "conditions": "MDJ approx. 5 mM, 50 gallons per acre, four applications, control = grower standard", "description": "Methyl dihydrojasmonate (MDJ) was applied to fields of grape to investigate the efficacy of MDJ in preventing bunch rot on (Botrytis cinerea) and powdery mildew (Erysiphe necator) on grapes. A composition comprising 22.6% w/v MDJ, 49.8% v/v TWEEN-20, and water was diluted at a rate of 32 oz. (1 liter) per 50 gallons of water (approximately a 5 mM solution of MDJ). The composition was then applied (at a rate of 50 gallons per acre) to three acres (1245 vines/acre) of a cabernet sauvignon variety grown in Napa Valley, CA. There was a total of four applications between June and September using a ground spray rig. To investigate the prevalence of Botrytis, the enzyme laccase was analyzed. Laccase can negatively impact wine by causing premature browning of bottled white wine and color degradation in red wine. The MDJ treated group had 2 units/ml, whereas the control (grower standard) had 5 units/ml. This level in the control means that Botrytis problems can be expected during the wine making process, whereas in the MDJ treated group, the value of 2 units/ml means there will be no issues with Botrytis during the wine making process."}, "[2]": {"system": "powdery mildew (Erysiphe necator)", "experiment": "Vineyard trial, MDJ on cabernet sauvignon grapes, powdery mildew on leaf and fruit samples under the microscope", "conditions": "MDJ approx. 5 mM, 50 gallons per acre, four applications; grape leaf and fruit samples", "description": "Methyl dihydrojasmonate (MDJ) was applied to fields of grape to investigate the efficacy of MDJ in preventing bunch rot on (Botrytis cinerea) and powdery mildew (Erysiphe necator) on grapes. A composition comprising 22.6% w/v MDJ, 49.8% v/v TWEEN-20, and water was diluted at a rate of 32 oz. (1 liter) per 50 gallons of water (approximately a 5 mM solution of MDJ). The composition was then applied (at a rate of 50 gallons per acre) to three acres (1245 vines/acre) of a cabernet sauvignon variety grown in Napa Valley, CA. There was a total of four applications between June and September using a ground spray rig. Several leaf and fruit samples were collected to access the presence of powdery mildew under the microscope and compared to leaf and fruit of plants treated with the grower standard."}, "Botrytis cinerea": {"system": "Botrytis cinerea", "experiment": "Hemp inoculated with Botrytis cinerea, visual disease score 0-5 at harvest", "conditions": "8 replicates", "description": "Culturing Botrytis cinerea: A Botrytis cinerea isolate was cultured onto potato-dextrose agar (PDA). It was resisolated by taking a mycelial plug from the edge of actively growing cultures every 2-3 weeks to maintain active growing culture. It was maintained at 20° C. under continuous light (˜58 pEin m^−2 s^−1).\nInoculating hemp: The inoculum was prepared by flooding a full grown B. cinerea PDA plate with DI water and 0.1% Tween-20 to create a suspension of fungal spores. Spore count was quantified.\nIn the first inoculation, a suspension of 1.2×10^4 spores of B. cinerea/mL was created, and 1.5 mL was applied to the top cola/inflorescence of each plant. Hemp was inoculated in the first week of flowering, with application to the underdeveloped inflorescences.\nIn the second inoculation, a suspension of 1.5×10^5 spores of B. cinerea/mL was created, and sucrose was added to 1% concentration, and the plants were sprayed until drip using a backpack sprayer.\nInoculated plants were placed in a growth chamber or controlled growth environment with a constant temperature of 20-25° C. and 50-70% relative humidity.\nTreatment Conditions: Treatments comprising 1 mM or 5 mM jasmonate (MDJ) were applied alone or alongside a biological (Continuum™). These treatment conditions were compared to control (no MDJ, no biological). Each treatment group had 8 replicates. […]"}}, "note": "Several values for one entry are separate records, joined by “and”; a condition that tells them apart may be missing. Identical values can stand only once.", "data": [{"smiles": "CCCCCC1C(=O)CCC1CC(=O)OC", "note": "(stereo not drawn) [MDJ, methyl dihydrojasmonate]", "values": [{"measurement": "Average % incidence of Botrytis on berries", "setting": "Botrytis; average of four replicates of 10 plants each", "result": 11, "unit": "%"}, {"measurement": "% incidence of Botrytis", "setting": "Botrytis; single replicates 1-4, 10 plants each, strawberry berries", "result": "10% and 16% and 7% and 11%"}, {"measurement": "Laccase", "setting": "[1]", "result": 2, "unit": "units/ml"}, {"measurement": "Control of powdery mildew compared to grower standard", "setting": "[2]", "result": "the same, or better, control of powdery mildew as the grower standard"}, {"measurement": "Average Disease Score", "setting": "Botrytis cinerea; condition B: 1 mM MDJ foliar spray", "result": 2.625}, {"measurement": "Average Disease Score", "setting": "Botrytis cinerea; condition C: 5 mM MDJ foliar spray", "result": 2.250}]}]}
